Reference: ChEMBL document CHEMBL1146283, “Development of potent, orally active 1-substituted-3,4-dihydro-2-quinolone glycogen phosphorylase inhibitors” (Bioorg Med Chem Lett, 2007)

Legend:
[1] = Bioavailability in AP Wistar rat at 2.1 to 4.0 mg/kg, iv and 8.1 to 8.9 mg/kg, po; format: ADME, organism-based; settings: in vivo, at 8.1 to 8.9 mg/kg
[2] = Half life in AP Wistar rat at 2.1 to 4.0 mg/kg, iv and 8.1 to 8.9 mg/kg, po; format: ADME, organism-based; settings: in vivo
[3] = Clearance in AP Wistar rat at 2.1 to 4.0 mg/kg, iv and 8.1 to 8.9 mg/kg, po; format: ADME, organism-based; settings: in vivo
[4] = Volume of distribution at steady state in AP Wistar rat at 2.1 to 4.0 mg/kg, iv and 8.1 to 8.9 mg/kg, po; format: ADME, organism-based; settings: in vivo, read-out: Vdss
in vitro [5] = settings: human, Caco-2
in vitro [6] = settings: human, Caco-2; remark: listed apart in the source

| bioavailability [1] [%] | half-life [2] [h] | clearance [3] [mL/min/kg] | Vd [4] [L/kg] | Papp A→B (in vitro [5]) [×10⁻⁶ cm/s] | Papp B→A (in vitro [6]) [×10⁻⁶ cm/s] | Structure (SMILES) |
| --- | --- | --- | --- | --- | --- | --- |
| 41 | 13 | 2.5 | 2.2 | – | – | O=C(NC1Cc2ccccc2N(CC(CO)CO)C1=O)c1cc2cc(Cl)sc2[nH]1 (racemic) |
| – | – | – | – | 0.3 | 11 | O=C(O)CN1C(=O)C(NC(=O)c2cc3sc(Cl)c(Cl)c3[nH]2)Cc2ccccc21 (stereo not given) |
| 12 | 5.4 | 5.1 | 1.4 | – | – | O=C(CN1C(=O)C(NC(=O)c2cc3cc(Cl)sc3[nH]2)Cc2ccccc21)NCCO (stereo not given) |
| > 100 | 11 | 2.4 | 1.9 | 29 | 29 | O=C(NC1Cc2ccccc2N(C[C@@H](O)CO)C1=O)c1cc2cc(Cl)sc2[nH]1 (mixture of isomers) |
| 35 | 16 | 1.2 | 1.4 | – | – | NC(=O)CN1C(=O)C(NC(=O)c2cc3cc(Cl)sc3[nH]2)Cc2ccccc21 (stereo not given) |
